This is an account of results in patent US6303639A, “Propanolamine derivatives substituted by heterocyclic radicals, processes for their preparation, pharmaceuticals comprising these compounds and their use” (Aventis Pharma Deutschland GmbH, priority 1998, dated 2001).

Molecules are shown by their SMILES.

The test deals with T1, Na+-dependent bile acid transportation system (intestinal bile acid transportation system in the terminal small intestine) (Oryctolagus cuniculus, UniProt Q28727).
T1 construct: Brush border membrane vesicles from the intestinal cells of the small intestine were prepared by the so-called Mg^2+ precipitation method; from tissue; host or cells: brush border membrane vesicles from the terminal 7/10 of the small intestine (ileum) of male New Zealand rabbits
T1 sequence (Q28727 1-347): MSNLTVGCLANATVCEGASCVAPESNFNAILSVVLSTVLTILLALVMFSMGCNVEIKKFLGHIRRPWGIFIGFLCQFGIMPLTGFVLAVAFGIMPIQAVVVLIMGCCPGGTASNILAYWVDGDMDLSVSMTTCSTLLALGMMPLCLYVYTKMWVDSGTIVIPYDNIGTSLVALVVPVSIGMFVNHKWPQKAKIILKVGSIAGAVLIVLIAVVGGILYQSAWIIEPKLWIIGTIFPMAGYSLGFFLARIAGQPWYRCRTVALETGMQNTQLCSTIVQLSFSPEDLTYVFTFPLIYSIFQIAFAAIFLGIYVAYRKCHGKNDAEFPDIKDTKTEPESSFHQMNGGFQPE
Put plainly: Inhibition of Na+-dependent [3H]-taurocholate uptake in brush border membrane vesicles of the ileum of rabbits. The conditions noted are these: rabbit ileum brush border membrane vesicles, 50 μM taurocholate, usually 1 minute incubation. It is filed as biochemical. As for the experimental part:
Biological testing of the compounds according to the invention was carried out by determining the inhibition of [^3 H]-taurocholate uptake in brush border membrane vesicles of the ileum of rabbits. The inhibition test was carried out as described below.
Test 1. Preparation of Brush Border Membrane Vesicles from the Ileum of Rabbits
Brush border membrane vesicles from the intestinal cells of the small intestine were prepared by the so-called Mg^2+ precipitation method as follows. Male New Zealand rabbits (2 to 2.5 kg body weight) were sacrificed by intravenous injection of 0.5 ml of T61®, an aqueous solution of 2.5 mg of tetracaine HCl, 100 mg of embutramide and 25 mg of mebezonium iodide. The small intestine was removed and flushed with ice-cold physiological saline solution. The terminal 7/10 of the small intestine (measured in the oral-rectal direction, i.e. the terminal ileum, which contains the active Na^+ -dependent bile acid transportation system) was used for preparation of the brush border membrane vesicles. The intestines were frozen in plastic bags under nitrogen at -80° C.
For preparation of the membrane vesicles, the frozen intestines were thawed at 30° C. in a water-bath. The mucosa were peeled off and suspended in 60 ml of ice-cold 12 mM TRIS-HCl buffer (pH 7.1)/300 mM mannitol, 5 mM EGTA/10 mg/l of phenylmethyl-sulfonyl fluoride/1 mg/l of trypsin inhibitor from soybeans (32 U/mg)/0.5 mg/l of trypsin inhibitor from the bovine lung (193 U/mg)/5 mg/l of bacitracin. After dilution to 300 ml with ice-cold distilled water, the mixture was homogenized with an Ultraturrax (18-rod, IKA Werk Staufen, Germany) for 3 minutes at 75% of the maximum power, while cooling with ice. After addition of 3 ml of 1 M MgCl2 solution (final concentration 10 mM), the mixture was left to stand for exactly 1 minute at 0° C. The cell membranes aggregated by addition of Mg^2+ and precipitated, with the exception of the brush border membranes. After centrifugation for 15 minutes at 3000×g (5000 rpm, SS-34 rotor), the precipitate was discarded and the supernatant, which contained the brush border membranes, was centrifuged at 48000×g (20000 rpm, SS-34 rotor) for 30 minutes. The supernatant was discarded and the precipitate was rehomogenized in 60 ml of 12 mM TRIS/HCI buffer (pH 7.1)/60 mM mannitol, 5 mM EGTA with a Potter Elvejhem homogenizer (Braun, Melsungen, 900 rpm, 10-stroke). After addition of 0.1 ml of 1 M MgCl2 solution and an incubation time of 15 minutes at 0° C., the mixture was centrifuged again at 3000×g for 15 minutes. The supernatant was then centrifuged again at 48000×g (20000 rpm, SS-34 rotor) for 30 minutes. The precipitate was taken up in 30 ml of 10 mM TRIS/HEPES buffer (pH 7.4)/300 mM mannitol and resuspended by 20 strokes in a Potter Elvejhem homogenizer at a 1000 rpm. After centrifugation at 48000×g (20000 rpm, SS-34 rotor) for 30 minutes, the precipitate was taken up in 0.5 to 2 ml of TRIS/HEPES buffer (pH 7.4)/280 mM mannitol (final concentration 20 mg/ml) and resuspended with the aid of a tuberculin syringe with a 27-gauge needle. The vesicles were either used for the transportation investigations directly after the preparation, or stored in 4 mg portions in liquid nitrogen at -196° C.
Test 2. Inhibition of the Na^+ -dependent [^3 H]Taurocholate Uptake in Brush Border Member Vesicles of the Ileum
The uptake of substrates into the brush border membrane vesicles described above was determined by means of the so-called membrane filtration technique. 10 μl of the vesicle suspension (100 μg of protein) were pipetted as drops onto the wall of a polystyrene incubation tube (11×70 mm) which contained the incubation medium with the corresponding ligands (90 μl). […]
For `OC(c1ccccc1)C(c1ccc2ccccc2n1)C(Nc1ccccn1)c1ccccc1` (stereo not shown) [Example 2], the “Biological Test: quotient of the IC50Na values of the reference substance taurochenodeoxycholate (TCDC) and of the test substance” value (“Biological Test: quotient” for short) is on record as 0.83.

Turning to `OC(c1nccs1)C(c1ccccc1)C(Nc1ccccn1)c1ccccc1` (stereo not shown) [Example 4], the “Biological Test: quotient” value is reported as 0.1.

With `OC(c1ccccc1)C(c1cnc2ccccc2n1)C(Nc1ccccn1)c1ccccc1` (stereo not shown) [Example 6], the “Biological Test: quotient” value is on record as 0.57.

Regarding `OC(c1ccccc1)C(c1cnc2ccccc2n1)C(Nc1ccccn1)c1ccccc1` (stereo not shown) [Example 7], the “Biological Test: quotient” value was determined as 0.22.

On to `OC(c1ccccc1)C(c1cnc2ccccc2c1)C(Nc1ccccn1)c1ccccc1` (stereo not shown) [Example 9], for which the “Biological Test: quotient” value turned out to be 0.35.

Turning to `OC(c1cnccn1)C(c1ccccn1)C(Nc1ccccn1)c1ccccc1` (stereo not shown) [Example 11], the “Biological Test: quotient” value is on record as 0.24.

For `OC(c1cnccn1)C(c1ccccn1)C(Nc1ccccn1)c1ccccc1` (stereo not shown) [Example 12], the “Biological Test: quotient” value was found to be 0.24.

On to `Cc1nc(C)c(C(O)C(c2ccccn2)C(Nc2ccccn2)c2ccccc2)s1` (stereo not shown) [Example 14], for which the “Biological Test: quotient” value is 0.66.

Turning to `OC(c1cnc2ccccc2c1)C(c1ccccn1)C(Nc1ccccn1)c1ccccc1` (stereo not shown) [Example 18], the “Biological Test: quotient” value came to 0.37.

With `OC(c1cnc2ccccc2c1)C(c1ccccn1)C(Nc1ccccn1)c1ccccc1` (stereo not shown) [Example 19], the “Biological Test: quotient” value amounted to 0.42.

As for `OC(c1cnc2ccccc2c1)C(c1ccccn1)C(Nc1ccccn1)c1ccccc1` (stereo not shown) [Example 20], the “Biological Test: quotient” value was 0.23.

Regarding `OC(c1cccs1)C(c1ccccn1)C(Nc1ccccn1)c1ccccc1` (stereo not shown) [Example 21], the “Biological Test: quotient” value is recorded as 1.16.

Take `OC(c1cccs1)C(c1ccccn1)C(Nc1ccccn1)c1ccccc1` (stereo not shown) [Example 22]: the “Biological Test: quotient” value worked out at 0.19.

As to `OC(c1cccs1)C(c1ccccn1)C(Nc1ccccn1)c1ccccc1` (stereo not shown) [Example 23], the “Biological Test: quotient” value was determined as 0.23.

Take `OC(c1cccs1)C(c1ccccn1)C(Nc1ccccn1)c1ccccc1` (stereo not shown) [Example 24]: the “Biological Test: quotient” value is given as 0.22.

On to `Cc1nc(C(O)C(c2ccccn2)C(Nc2ccccn2)c2ccccc2)c(C)o1` (stereo not shown) [Example 25], for which the “Biological Test: quotient” value came to 0.46.

As for `OC(c1ccc(Cl)s1)C(c1ccccn1)C(Nc1ccccn1)c1ccccc1` (stereo not shown) [Example 26], the “Biological Test: quotient” value is given as 0.26.

Take `Cc1ccc(C(O)C(c2ccccn2)C(Nc2ccccn2)c2ccccc2)s1` (stereo not shown) [Example 27]: the “Biological Test: quotient” value is listed as 1.02.

With `Cc1noc(C)c1C(O)C(c1ccccn1)C(Nc1ccccn1)c1ccccc1` (stereo not shown) [Example 31], the “Biological Test: quotient” value was 0.37.

As for `Cc1nc(C(O)C(c2ccccn2)C(Nc2ccccn2)c2ccccc2)sc1C` (stereo not shown) [Example 33], the “Biological Test: quotient” value is 0.24.

As for `COc1ccsc1C(O)C(c1ccccn1)C(Nc1ccccn1)c1ccccc1` (stereo not shown) [Example 37], the “Biological Test: quotient” value is given as 9.53.

For the molecule `Cc1nc(C)c(C(O)C(c2ccccn2)C(Nc2ccccn2)c2ccccc2N)s1` (stereo not shown) [Example 39], the “Biological Test: quotient” value turned out to be 0.65.

On to `OC(c1cc(-c2ccccc2)on1)C(c1ccccn1)C(Nc1ccccn1)c1ccccc1` (stereo not shown) [Example 41], for which the “Biological Test: quotient” value is recorded as 0.60.

With `Cn1ccnc1C(O)C(c1ccccn1)C(Nc1ccccn1)c1ccccc1` (stereo not shown) [Example 42], the “Biological Test: quotient” value is listed as 0.87.

As for `Cc1noc(C)c1C(O)C(c1ccccn1)C(Nc1ccccn1)c1ccccc1[N+](=O)[O-]` (stereo not shown) [Example 43], the “Biological Test: quotient” value is on record as 0.23.

Take `Cc1noc(C)c1C(O)C(c1ccccn1)C(Nc1ccccn1)c1ccccc1N` (stereo not shown) [Example 44]: the “Biological Test: quotient” value is listed as 0.74.

On to `OC(c1cc2ccccc2[nH]1)C(c1ccccn1)C(Nc1ccccn1)c1ccccc1` (stereo not shown) [Example 46], for which the “Biological Test: quotient” value turned out to be 0.22.

Turning to `Cn1ncnc1C(O)C(c1ccccn1)C(Nc1ccccn1)c1ccccc1` (stereo not shown) [Example 47], the “Biological Test: quotient” value is 0.35.

Regarding `Cc1nc(C(O)C(c2ccccn2)C(Nc2ccccn2)c2ccccc2N)c(C)o1` (stereo not shown) [Example 48], the “Biological Test: quotient” value turned out to be 0.80.

In the case of `Cc1cc(C(O)C(c2ccccn2)C(Nc2ccccn2)c2ccccc2N)no1` (stereo not shown) [Example 49], the “Biological Test: quotient” value came to 0.77.

In the case of `Cc1nc(-c2ccncc2)sc1C(O)C(c1ccccn1)C(Nc1ccccn1)c1ccccc1` (stereo not shown) [Example 50], the “Biological Test: quotient” value turned out to be 0.79.

Turning to `Cc1nc(-c2ccncc2)sc1C(O)C(c1ccccn1)C(Nc1ccccn1)c1ccccc1` (stereo not shown) [Example 51], the “Biological Test: quotient” value worked out at 0.52.

For `Cc1nc(-c2ccncc2)sc1C(O)C(c1ccccn1)C(Nc1ccccn1)c1ccccc1` (stereo not shown) [Example 52], the “Biological Test: quotient” value came out at 0.40.

In the case of `Nc1ccccc1C(Nc1ccccn1)C(c1ccccn1)C(O)c1ccon1` (stereo not shown) [Example 55], the “Biological Test: quotient” value stood at 0.31.
